{
  "source": "patent US20260069606A1",
  "about": "“Oxidative Stress and Diabetes Treatment with Cobinamide” (The Regents of the University of California, priority 2022, published 2026)",
  "key": {"[1]": {"test_system": "H9c2 rat embryonal cardiomyocytes", "experiment": "Mitochondrial superoxide content, MitoSOX Red fluorescence", "type": "cell-based", "method": "FIGS. 3A-3H. […] FIGS. 3A-3B. […] FIG. 3A. […] FIG. 3B. […] FIGS. 3C-3D. […] FIG. 3D. […] FIGS. 3E-3F. […] FIG. 3E. Representative blots are shown. […] FIG. 3F. […] FIG. 3G. […] FIG. 3H.\nH9c2 cells were plated on glass cover slips in 24 well dishes, and 16 h later the medium was changed to phenol red-free DMEM supplemented with 20 mM Hepes, 0.1% fetal bovine serum, and 0.5% bovine serum albumin. […] MitoSOX Red is a dihydroethidium derivative containing triphenyl-phosphonium, which localizes it to respiring mitochondria. Its reaction with O2·^− yields 2-hydroxy-mitoethidium (2-OH-Mito-E″), whereas its reaction with other oxidative species yields mitoethidium (Mito-E^+)^67. These two oxidative derivatives have overlapping fluorescence spectra, but they can be distinguished by high performance liquid chromatography (HPLC)^68. Rotenone increased 2-OH-Mito-E^+ about two-fold, without increasing Mito-E^+. Thus, any increased fluorescence observed on treating cells with rotenone could be ascribed to an increase in 2-OH-Mito-E^+, and decreased fluorescence by an anti-oxidant in rotenone-treated cells was likely from a decrease in 2-OH-Mito-E^+.\nThe cells were then washed once with PBS, placed back in the DMEM experimental medium, and incubated with the indicated drugs for 30 min. At the end of the incubation period, nuclei of both the MitoSOX Red- and JC-1-treated cells were stained with […] 4′,6-diamidino-2-phenyl-indole (DAPI) for 3 min, washed once with PBS, and returned to the DMEM experimental medium. The cover slips were removed from the wells, mounted in the DMEM experimental medium, and red (MitoSOX Red and JC-1 aggregates), green (JC-1 monomers), and blue (DAPI) fluorescence intensity was assessed using a Keyence BZ-X700 fluorescence microscope at the following paired excitation/emission wavelengths, respectively: 560/630, 490/525, and 360/460 nm.\nTo assess if cobinamide reduces oxidative stress in cells and to compare its […] efficacy to that of cobalamin, imisopasem, and MnTBAP, several sets of experiments were performed. First, whether cobinamide reduces mitochondrial-generated O2·^− was evaluated using the fluorescent probe MitoSOX Red. H9c2 rat embryonal cardiomyocytes were treated with rotenone, an inhibitor of complex I, to increase mitochondrial O2·^−. […] Monitoring the UV-visible spectrum of cobinamide is a sensitive means to assess ligand binding^38."}, "[2]": {"test_system": "hearts of diabetic mice", "experiment": "Lipid and protein oxidation and DNA damage in hearts of diabetic mice", "type": "in vivo", "method": "(§1) FIGS. 4A-4K. Cobinamide Rescues Flies from Paraquat Poisoning and Prevents Abnormal Lipid and Protein Oxidation, DNA Damage, and Fibrosis in the Hearts of Diabetic Mice. FIG. 4A. At time zero, 10 fruit flies (D. melanogaster) were transferred to vials with food to which either phosphate-buffered saline (PBS), 0.8 mM of the indicated drugs, 20 mM paraquat (PQ), or 20 mM paraquat with 0.8 mM of the indicated drugs had been added. The number of live flies was counted each day for 7 d. The experiment was repeated seven times, for a total of 70 flies per condition. The percent surviving flies was calculated; error bars represent standard deviations and are shown in one direction only for sake of clarity. FIGS. 4B-4K. […] The amount of 8-isoprostane (FIG. 4B) was measured by ELISA, protein oxidation (FIGS. 4C-4D) was assessed by immunoblotting, and nitrotyrosine content (FIGS. 4E-4F) was assessed by immunohistochemistry. DNA damage was assessed by 8-OH-deoxyguanosine staining (FIGS. 4G-4H) and a long amplicon qPCR-based assay (FIG. 4I). Cardiac fibrosis (FIGS. 4J-4K) was assessed by Mallory trichrome staining, which stains collagen blue. […] For Panels C, D, and I, frozen heart samples were selected randomly from each of the four groups and were analyzed. For Panel D, blots were analyzed by densitometric scanning using Li-Cor Odyssey software, with the density of each lane normalized to the actin band. […]"}, "[3]": {"test_system": "hearts of diabetic mice", "experiment": "Cardiac fibrosis (collagen deposition, Mallory trichrome) in diabetic mice", "type": "in vivo", "details": "three months histidyl-cobinamide in drinking water", "method": "as §1"}, "[4]": {"details": "second order; literature values; cited from earlier work"}},
  "data": [
    {"smiles": "C/C1=C2/[N-][C@H]([C@H](CC(N)=O)[C@@]2(C)CCC(=O)NC[C@@H](C)O)[C@]2(C)N=C(/C(C)=C3N=C(/C=C4N=C1[C@@H](CCC(N)=O)C\\4(C)C)[C@@H](CCC(N)=O)[C@]\\3(C)CC(N)=O)[C@@H](CCC(N)=O)[C@]2(C)CC(N)=O.[Co+3]", "note": "[cobinamide, aquohydroxo-cobinamide]", "values": [
      {"measurement": "MitoSOX red fluorescence in rotenone-treated cells", "setting": "[1]; H9c2, 5 μM rotenone 30 min, drugs at 2.5 μM", "result": "markedly reduced fluorescence"},
      {"measurement": "MitoSOX red fluorescence, drug alone", "setting": "[1]; H9c2, vehicle-treated cells without rotenone, 2.5 μM", "result": "no change"},
      {"measurement": "All markers of oxidative stress and DNA damage in hearts of diabetic mice", "setting": "[2]; 8-isoprostane, protein carbonylation, nitrotyrosine, 8-OH-deoxyguanosine, long-amplicon PCR, three months histidyl-cobinamide in drinking water", "result": "significantly reduced all markers of oxidative stress and DNA damage to values similar to those found in the non-diabetic mice"},
      {"measurement": "Tyrosine nitration in hearts of diabetic mice", "setting": "[2]; nitrotyrosine immunohistochemistry", "result": "reduced"},
      {"measurement": "Collagen content in hearts of diabetic mice", "setting": "[3]", "result": "reduced collagen content in the hearts of the diabetic mice essentially to that of non-diabetic mice"},
      {"measurement": "Rate constant, reaction with nitric oxide (·NO), published", "setting": "[4]", "result": "2.4 × 10^8 (51) M^−1 s^−1"}
    ]}
  ]
}
